Laboratory results published in patent publication US9890133B2 (priority 2011, dated 2018).
Values after ≈ are worked out from the molar mass of the structure shown.

Key:
Poliovirus 3 = experiment: microbe, parasite or virus in culture; format: cell-based; conditions: Enterovirus C, read-out: Poliovirus3 EC50
in vitro = conditions: human

SMILES: CC(C)c1ccc2c(c1)OC1(O)c3cccc(N)c3C(=O)C21NC(=O)c1cnc2ccccc2n1 (stereo not drawn) [Example 275, N-(1-Amino-4b-hydroxy-7-isopropyl-10-oxo-9b,10-dihydro-4bH-indeno[1,2-b]benzofuran-9b-yl)quinoxaline-2-carboxamide]
- EC50 (Poliovirus 3): 0.035 µg/mL (≈ 0.075 µM)
- CC50 (in vitro): 4.55 µg/mL (≈ 9.75 µM)
- CC50 (in vitro; Picorana CC50): 4.78 µg/mL (≈ 10.2 µM)

SMILES: CC(C)c1ccc2c(c1)OC1(O)c3cccc(N)c3C(=O)C21NC(=O)c1ccc(C#N)cn1 (stereo not drawn) [Example 245, N-(1-Amino-4b-hydroxy-7-isopropyl-10-oxo-9b,10-dihydro-4bH-benzo[d]indeno[1,2-b]furan-9b-yl)-5-cyanopicolinamide]
- EC50 (Poliovirus 3): < 0.01 µg/mL
- CC50 (in vitro): > 10 µg/mL
- CC50 (in vitro; Picorana CC50): 8.47 µg/mL (≈ 19.2 µM)

SMILES: Cc1c(C(=O)NC23C(=O)c4c(N)cccc4C2(O)Oc2cc(C(C)C)ccc23)sc2ccccc12 (stereo not drawn) [Example 274, N-(1-Amino-4b-hydroxy-7-isopropyl-10-oxo-9b,10-dihydro-4bH-indeno[1,2-b]benzofuran-9b-yl)-3-methylbenzo[b]thiophene-2-carboxamide]
- EC50 (Poliovirus 3): 0.036 µg/mL (≈ 0.0743 µM)
- CC50 (in vitro): > 10 µg/mL

SMILES: CC(C)c1ccc2c(c1)OC1(O)c3cccc(N)c3C(=O)C21NC(=O)c1ccc(Cl)cc1 (stereo not drawn) [Example 155, N-(1-Amino-4b-hydroxy-7-isopropyl-10-oxo-9b,10-dihydro-4bH-indeno[1,2-b]benzofuran-9b-yl)-4-chlorobenzamide]
- EC50 (Poliovirus 3): < 0.01 µg/mL
- CC50 (in vitro): 7.81 µg/mL (≈ 17.4 µM)
- CC50 (in vitro; Picorana CC50): 9.02 µg/mL (≈ 20.1 µM)

SMILES: CC(C)c1ccc2c(c1)OC1(O)c3cccc(N)c3C(=O)C21NC(=O)c1cnc2ccccc2c1 (stereo not drawn) [Example 214, N-(1-Amino-4b-hydroxy-7-isopropyl-10-oxo-9b,10-dihydro-4bH-indeno[1,2-b]benzofuran-9b-yl)quinoline-3-carboxamide]
- EC50 (Poliovirus 3): < 0.01 µg/mL
- CC50 (in vitro): > 10 µg/mL

SMILES: CC(C)c1ccc2c(c1)OC1(O)c3cccc(N)c3C(=O)C21NC(=O)c1ccncc1F (stereo not drawn) [Example 250, N-(1-Amino-4b-hydroxy-7-isopropyl-10-oxo-9b,10-dihydro-4bH-indeno[1,2-b]benzofuran-9b-yl)-3-fluoroisonicotinamide]
- EC50 (Poliovirus 3): < 0.01 µg/mL
- CC50 (in vitro): > 10 µg/mL

SMILES: COc1cncc(C(=O)NC23C(=O)c4c(N)cccc4C2(O)Oc2cc(C(C)C)ccc23)c1 (stereo not drawn) [Example 261, N-(1-Amino-4b-hydroxy-7-isopropyl-10-oxo-9b,10-dihydro-4bH-indeno[1,2-b]benzofuran-9b-yl)-5-methoxynicotinamide]
- EC50 (Poliovirus 3): < 0.01 µg/mL
- CC50 (in vitro): > 10 µg/mL

SMILES: CC(C)c1ccc2c(c1)OC1(O)c3cccc(N)c3C(=O)C21NC(=O)c1cc2ccccc2c(=O)[nH]1 (stereo not drawn) [Example 286, N-(1-Amino-4b-hydroxy-7-isopropyl-10-oxo-9b,10-dihydro-4bH-indeno[1,2-b]benzofuran-9b-yl)-1-oxo-1,2-dihydroisoquinoline-3-carboxamide]
- EC50 (Poliovirus 3): < 0.01 µg/mL
- CC50 (in vitro): 4.04 µg/mL (≈ 8.39 µM)
- CC50 (in vitro; Picorana CC50): 4.28 µg/mL (≈ 8.89 µM)

SMILES: CC(C)c1ccc2c(c1)OC1(O)c3cccc(N)c3C(=O)C21NC(=O)c1ccc2ccccc2c1 (stereo not drawn) [Example 171, N-(1-Amino-4b-hydroxy-7-isopropyl-10-oxo-9b,10-dihydro-4bH-indeno[1,2-b]benzofuran-9b-yl)-2-naphthamide]
- EC50 (Poliovirus 3): 0.03 µg/mL (≈ 0.0646 µM)
- CC50 (in vitro): > 10 µg/mL

SMILES: CC(C)c1ccc2c(c1)OC1(O)c3cccc(N)c3C(=O)C21NC(=O)C1CC1 (stereo not drawn) [Example 158, N-(1-Amino-4b-hydroxy-7-isopropyl-10-oxo-9b,10-dihydro-4bH-indeno[1,2-b]benzofuran-9b-yl)cyclopropanecarboxamide]
- EC50 (Poliovirus 3): < 0.01 µg/mL
- CC50 (in vitro): 39.4 µg/mL (≈ 104 µM)
- CC50 (in vitro; Picorana CC50): 44.7 µg/mL (≈ 118 µM)

SMILES: Cc1ccnc2nc(C(=O)NC34C(=O)c5c(N)cccc5C3(O)Oc3cc(C(C)C)ccc34)nn12 (stereo not drawn) [Example 281, N-(1-Amino-4b-hydroxy-7-isopropyl-10-oxo-9b,10-dihydro-4bH-indeno[1,2-b]benzofuran-9b-yl)-7-methyl-[1,2,4]triazolo[1,5-a]pyrimidine-2-carboxamide]
- EC50 (Poliovirus 3): 0.025 µg/mL (≈ 0.0531 µM)
- CC50 (in vitro): > 10 µg/mL

SMILES: CC(C)c1ccc2c(c1)OC1(O)c3ccccc3C(=O)C21NC(=O)c1c[nH]c2ccccc12 (stereo not drawn) [Example 209, N-(4b-Hydroxy-7-isopropyl-10-oxo-9b,10-dihydro-4bH-indeno[1,2-b]benzofuran-9b-yl)-1H-indole-3-carboxamide]
- EC50 (Poliovirus 3): 0.036 µg/mL (≈ 0.0821 µM)
- CC50 (in vitro): 8.43 µg/mL (≈ 19.2 µM)
- CC50 (in vitro; Picorana CC50): > 10 µg/mL

SMILES: Cc1c(C(=O)NC23C(=O)c4c(N)cccc4C2(O)Oc2cc(C(C)C)ccc23)oc2ccccc12 (stereo not drawn) [Example 205]
- EC50 (Poliovirus 3): 0.036 µg/mL (≈ 0.0768 µM)
- CC50 (in vitro): > 10 µg/mL

SMILES: CC(C)c1ccc2c(c1)OC1(O)c3cccc(N)c3C(=O)C21NC(=O)c1ccnnc1 (stereo not drawn) [Example 276, N-(1-Amino-4b-hydroxy-7-isopropyl-10-oxo-9b,10-dihydro-4bH-indeno[1,2-b]benzofuran-9b-yl)pyridazine-4-carboxamide]
- EC50 (Poliovirus 3): < 0.01 µg/mL
- CC50 (in vitro): > 10 µg/mL

SMILES: Cc1cc2c(cc1C)C1(NC(=O)c3cccnc3)C(=O)c3c(N)cccc3C1(O)O2 (stereo not drawn) [Example 260, N-(1-Amino-4b-hydroxy-7,8-dimethyl-10-oxo-9b,10-dihydro-4bH-indeno[1,2-b]benzofuran-9b-yl)nicotinamide]
- EC50 (Poliovirus 3): 0.04 µg/mL (≈ 0.0996 µM)
- CC50 (in vitro): > 10 µg/mL

SMILES: CC(C)c1ccc2c(c1)OC1(O)c3ccccc3C(=O)C21N (stereo not drawn) [Example 65, 9b-Amino-4b-hydroxy-7-isopropyl-4b,9b-dihydro-5-oxa-indeno[2,1-a]inden-10-one]
- CC50 (in vitro; Picorana CC50): 18.2 µg/mL (≈ 61.6 µM)

SMILES: CC(C)c1ccc2c(c1)OC1(O)c3cccc(N4CCC(O)CC4)c3C(=O)C21O (stereo not drawn) [Example 147, 4b,9b-Dihydroxy-1-(4-hydroxypiperidin-1-yl)-7-isopropyl-4bH-benzo[d]indeno[1,2-b]furan-10(9bH)-one]
- CC50 (in vitro; Picorana CC50): 32.9 µg/mL (≈ 83.1 µM)

SMILES: CC(C)c1ccc2c(c1)OC1(O)c3ccccc3C(=O)C21NC(=O)c1nc2ccccc2[nH]1 (stereo not drawn) [Example 227, N-(4b-hydroxy-7-isopropyl-10-oxo-9b,10-dihydro-4bH-benzo[d]indeno[1,2-b]furan-9b-yl)-1H-benzo[d]imidazole-2-carboxamide]
- CC50 (in vitro): > 10 µg/mL
- CC50 (in vitro; Picorana CC50): 9.62 µg/mL (≈ 21.9 µM)

SMILES: CC(=O)OC12Oc3cc(C(C)C)ccc3C1(OC(C)=O)C(O)c1ccccc12 (stereo not drawn) [Example 127, 10-Hydroxy-7-isopropyl-9b,10-dihydro-4bH-indeno[1,2-b]benzofurane-4b,9b-diyl diacetate]
- CC50 (in vitro; Picorana CC50): 37.6 µg/mL

SMILES: CC(C)c1ccc2c(c1)OC1(O)c3ccc(N4CCOCC4)cc3C(=O)C21O (stereo not drawn) [Example 140, 4b,9b-Dihydroxy-7-isopropyl-2-morpholinyl-4bH-benzo[d]indeno[1,2-b]furan-10(9bH)-one]
- CC50 (in vitro; Picorana CC50): 2.08 µg/mL (≈ 5.45 µM)

SMILES: CC(=O)N1c2ccccc2C2(N)C(=O)c3ccccc3C12O (stereo not drawn) [Example 108, 5-Acetyl-9b-amino-4b-hydroxy-5,9b-dihydro-4bH-indeno[1,2-b]indol-10-one]
- CC50 (in vitro; Picorana CC50): 1.81 µg/mL (≈ 6.15 µM)

SMILES: CC(C)NC(=O)NC12C(=O)c3c([N+](=O)[O-])cccc3C1(O)Oc1cc(C(C)C)ccc12 (stereo not drawn) [Example 76, 1-(4b-Hydroxy-7-isopropyl-1-nitro-10-oxo-4b,10-dihydro-5-oxa-indeno[2,1-a]inden-9b-yl)-3-isopropyl-urea]
- CC50 (in vitro; Picorana CC50): > 50 µg/mL

SMILES: CC(=O)OC12C(=O)c3ccccc3C1(OC(C)=O)N(C(C)=O)c1cc(C)c(C)cc12 (stereo not drawn) [Example 107, 5-Acetyl-7,8-dimethyl-10-oxo-4b,5,9b,10-tetrahydroindeno[1,2-b]indole-4b,9b-diyl diacetate]
- CC50 (in vitro; Picorana CC50): > 50 µg/mL
